Measurements taken from patent US20190270778A1, “Cyclic Peptides As C5a Receptor Antagonists” (priority 2016, published 2019).
Where two headings read alike, the source gives them in different places.

Columns and labels:
[1] = amide bond, 18-membered ring
[2] = amide bond, 18-membered ring; remark: listed apart in the source
C5a receptor [3] = target: T1, C5a receptor (Homo sapiens, UniProt P21730); assay: HWB CD11b expression assay (C5a-challenged granulocytes, flow cytometry); assay type: cell-based
T1 construct: endogenous in cells; host or cells: leukocytes/granulocytes in freshly drawn whole blood of healthy volunteers
T1 sequence (P21730 1-350): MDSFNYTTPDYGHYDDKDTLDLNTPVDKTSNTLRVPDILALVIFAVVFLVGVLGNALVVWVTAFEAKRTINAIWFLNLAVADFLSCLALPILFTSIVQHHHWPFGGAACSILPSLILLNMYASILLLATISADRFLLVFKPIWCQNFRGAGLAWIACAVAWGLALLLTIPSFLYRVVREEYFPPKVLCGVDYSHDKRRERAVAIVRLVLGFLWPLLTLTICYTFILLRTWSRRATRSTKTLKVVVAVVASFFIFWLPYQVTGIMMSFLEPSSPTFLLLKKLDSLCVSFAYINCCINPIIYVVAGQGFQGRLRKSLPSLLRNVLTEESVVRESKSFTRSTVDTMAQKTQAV
Procedure: HWB was collected from healthy, non-medicated volunteers into BD Vacutainer® blood collection tubes with K2EDTA as an anticoagulant. HWB was aliquoted (85 μL/well) in 96-well, deep-well, V-bottom plates and incubated at 37° C. for 30 minutes. Test compounds (5 μL/well) were added to HWB and incubated at 37° C. for 30 minutes. Anti-human CD11b antibody conjugated with APC (BD Biosciences) was added to HWB (5 μL/well) and incubated at 37° C. for additional 30 minutes. HWB was then challenged with human C5a (final 1 nM) for 30 minutes at 37° C. Samples were treated with warm 1× Lyse/Fix buffer (BD Biosciences) to terminate activation and further incubated at 37° C. for 20 minutes to lyse red blood cells. Assay plates were centrifuged at 300×g for 5 minutes, supernatant was aspirated, and cells were washed once with PBS containing 0.5% FBS. Washed cells were resuspended in PBS containing 0.5% FBS and subjected to flow cytometric analysis using an LSRFortessa equipped with a HTS plate loader (BD Biosciences). The granulocyte population was gated for analysis of MF of CD11b staining using FACSDiva version 6.2 (BD Biosciences). Data from 11 compound concentrations (singlicate at each concentration) was normalized as a percentage of control based on the formula:
% of Control=100×(A−B)/(C−B)
where A is MF from wells containing test compound and C5a, B is MF from wells without C5a (background MF from unstimulated samples) and C is MF from wells containing only C5a (maximum MF). Inhibition curves and IC50 values (test compound concentrations which produce 50% inhibition) were determined using the Prism version 5 software (GraphPad). HWB was also stimulated with 11 different concentrations of C5a to construct a responsive curve and to obtain EC50 value (the concentration of C5a that gives half-maximal response) and curve slope using the Prism version 5 software. Kb (nM) was then calculated using the equation described by Leff and Dougal (TIPS 1993 14:110-112).

C5a receptor [4] = target: T1, C5a receptor; assay: HWB oxidative burst assay (C5a-induced, luminol chemiluminescence); assay type: cell-based
Procedure: Inhibition of oxidative burst activity was determined in HWB primed with TNF-α and stimulated with C5a. C5a-induced oxidative burst response (generation of reactive oxygen species) was then detected in the presence of luminol as a chemiluminescent signal.
On the day of assay, HWB was collected from a healthy, non-medicated volunteer into tubes containing 3.8% sodium citrate (final sodium citrate concentration in HWB is 0.38%) and stored in a 37° C. water bath until use (no longer than 60 minutes).
To start the assay, TNF-α was added to HWB to a final concentration of 1.0 nM and 68 μL of this HWB/TNF-α mix was transferred to each well of a 384-well white Optiplate (assay plate). 4.0 μL of various concentrations of test agent were then added to the assay plate and mixed twice gently by aspirating up and down. The assay plate was then placed on a thermoshaker (JITTERBUG-4) and incubated at 37° C. (without shaking). After 60 minutes, C5a (Complement Technology) prepared in luminol (Sigma) was added to the assay plate and mixed twice gently by aspirating up and down. The plate was then placed in a ViewLux 1430 Microplate Imager (Perkin Elmer). After 5 minutes, oxidative burst activity was determined with the ViewLux by measuring luminol-enhanced whole blood chemiluminescence. Final assay conditions were 1.5 mM HEPES pH 7.5, 0.015% BSA, 15% HBSS, 0.85 ng/mL TNFα, 1.0 mM Luminol, C5a 20 nM, 76.5% HWB, 0.15% DMSO and various concentrations of test agent.
The percent (%) effect at each concentration of test agent was then calculated based on and relative to the amount of signal that was produced by positive (i.e. full inhibition of C5a induced oxidative burst) and negative (i.e. completely uninhibited C5a induced oxidative burst) control wells contained within each assay plate. The concentration and % effect values for test agents were plotted and the concentration of test agent required for 50% effect (IC50) was determined with a four-parameter logistic dose response equation (BioBook; IDBS). Kb (nM) was then calculated (BioBook; IDBS) using the equation described by Leff and Dougal (TIPS 1993 14:110-112).

[5] = the molecule shown is the open-chain precursor

## H-Hyp(tBu)-dAla(3-(cis-4-hydroxycyclohexyl))-Ala(3-(1-Boc-1H-pyrrolo[2,3-b]pyridin-3-yl))-Arg(Pbf)-Orn(Nα-[Boc-N(CH2CO2tBu)-Phe]; chain through Nδ)-OH
[1]; [5]
  ring closure, crude yield: 100%

## H-Pro((4S)-N(Boc)CH2CO2tBu)-dAla(3-(cis-4-hydroxycyclohexyl))-Trp(Boc)-Arg(Pbf)-Orn(Nα-[Boc-N(CH2CO2tBu)-Phe]; chain through Nδ)-OH
[1]; [5]
  ring closure, crude yield: 100%

## ((S)-1-(((3R,6S,9S,15S,19R,20aS)-9-(3-guanidinopropyl)-19-hydroxy-3-(((1s,4S)-4-hydroxycyclohexyl)methyl)-6-((6-methoxy-1H-indol-3-yl)methyl)-1,4,7,10,16-pentaoxoicosahydropyrrolo[1,2-a][1,4,7,10,13]pentaazacyclooctadecin-15-yl)amino)-1-oxo-3-phenylpropan-2-yl)glycine
[2]; with chain assembly
  ring closure, yield after HPLC: 2.3%

## H-Hyp(tBu)-dAla(3-(cis-4-hydroxycyclohexyl))-Trp(Boc)-Arg(Pbf)-Orn(Nα-[N-(CH2CO2tBu)-MePhe]; chain through Nδ)-OH
[1]; [5]
  ring closure, crude yield: 100%

## H-Hyp(CH2CO2tBu)-dAla(3-(cis-4-hydroxycyclohexyl))-Trp(Boc)-Arg(Pbf)-Orn(Nα-[Boc-N(CH2CO2tBu)-Phe]; chain through Nδ)-OH?
[1]; [5]
  ring closure, crude yield: 83%

## ((S)-1-(((3R,6S,9S,15S,19R,20aS)-6-((1H-indol-3-yl)methyl)-19-amino-9-(3-guanidinopropyl)-3-(((1s,4S)-4-hydroxycyclohexyl)methyl)-1,4,7,10,16-pentaoxoicosahydropyrrolo[1,2-a][1,4,7,10,13]pentaazacyclooctadecin-15-yl)amino)-1-oxo-3-phenylpropan-2-yl)glycine
[2]; 2 steps
  ring closure, yield after HPLC: 6.6%

## ((S)-1-(((31R,6S,9S,15S,19R,20aS)-6-((1H-indazol-3-yl)methyl)-9-(3-guanidinopropyl)-19-hydroxy-3-(((1s,4S)-4-hydroxycyclohexyl)methyl)-1,4,7,10,16-pentaoxoicosahydropyrrolo[1,2-a][1,4,7,10,13]pentaazacyclooctadecin-15-yl)amino)-1-oxo-3-phenylpropan-2-yl)glycine
[2]; 2 steps
  ring closure, yield after HPLC: 35%

## tert-butyl-3-(((3R,6S,9S,15S,19R,20aS)-19-(tert-butoxy)-15-((tert-butoxycarbonyl)amino)-3-(((1s,4S)-4-hydroxycyclohexyl)methyl)-1,4,7,10,16-pentaoxo-9-(3-(3-((2,2,4,6,7-pentamethyl-2,3-dihydrobenzofuran-5-yl)sulfonyl)guanidino)propyl)icosahydropyrrolo[1,2-a][1,4,7,10,13]pentaazacyclooctadecin-6-yl)methyl)-1H-indole-1-carboxylate
[1]; HATU/NMM, THF/DMF 10:1, 13.1 mM
  ring closure, crude yield: 95.3%

## ((S)-1-(((3R,6S,9S,15S,19R,20aS)-9-(3-guanidinopropyl)-19-hydroxy-3-(((1s,4S)-4-hydroxycyclohexyl)methyl)-6-((5-methoxy-1H-indol-3-yl)methyl)-1,4,7,10,16-pentaoxoicosahydropyrrolo[1,2-a][1,4,7,10,13]pentaazacyclooctadecin-15-yl)amino)-1-oxo-3-phenylpropan-2-yl)glycine
[2]; 2 steps
  ring closure, yield after HPLC: 6%

## H-Hyp(tBu)-dAla(3-(cis-4-hydroxycyclohexyl))-Ala(3-(4-methyl-1H-pyrazol-1-yl))-Arg(Pbf)-Orn(Nα-[Boc-N(CH2CO2tBu)-Phe]; chain through Nδ)-OH
[1]; [5]
  ring closure, crude yield: 48%

## ((S)-1-(((3R,6S,9S,15S,19R,20aS)-6-((1H-indol-3-yl)methyl)-19-acetamido-9-(3-guanidinopropyl)-3-(((1s,4S)-4-hydroxycyclohexyl)methyl)-1,4,7,10,16-pentaoxoicosahydropyrrolo[1,2-a][1,4,7,10,13]pentaazacyclooctadecin-15-yl)amino)-1-oxo-3-phenylpropan-2-yl)glycine
[2]; 2 steps
  ring closure, yield after HPLC: 20%

## H-Pro-dAla(3-(cis-4-hydroxycyclohexyl))-Ala(3-(1-Boc-1H-pyrrolo[2,3-b]pyridin-3-yl))-Arg(Pbf)-Orn(Nα-[Boc-N(CH2CO2tBu)-Phe]; chain through Nδ)-OH
[1]; [5]
  ring closure, crude yield: 100%

## N=C(N)NCCC[C@@H]1NC(=O)[C@H](Cc2c[nH]c3ccccc23)NC(=O)[C@@H](C[C@H]2CC[C@@H](O)CC2)NC(=O)[C@@H]2C[C@@H](O)CN2C(=O)[C@@H](NC(=O)[C@H](Cc2ccccc2)NCC(=O)O)CCCNC1=O [Example 1, ((S)-1-(((3R,6S,9S,15S,19R,20aS)-6-((1H-indol-3-yl)methyl)-9-(3-guanidinopropyl)-19-hydroxy-3-(((1s,4S)-4-hydroxycyclohexyl)methyl)-1,4,7,10,16-pentaoxoicosahydropyrrolo[1,2-a][1,4,7,10,13]pentaazacyclooctadecin-15-yl)amino)-1-oxo-3-phenylpropan-2-yl)glycine]
C5a receptor [3]
  Kb: 13.1 nM
C5a receptor [4]
  Kb: 1.6 nM

## H-Pro((4S)-NHBoc)-dAla(3-(cis-4-hydroxycyclohexyl))-Trp(Boc)-Arg(Pbf)-Orn(Nα-[Boc-N(CH2CO2tBu)-Phe]; chain through Nδ)-OH
[1]; the molecule shown is the open-chain precursor, HATU/NMM, THF/DMF
  ring closure, crude yield: 100%

## CC(=O)N[C@@H]1C[C@H]2C(=O)N[C@H](C[C@H]3CC[C@@H](O)CC3)C(=O)N[C@@H](Cc3c[nH]c4ccccc34)C(=O)N[C@@H](CCCNC(=N)N)C(=O)NCCC[C@H](NC(=O)[C@H](Cc3ccccc3)NCC(=O)O)C(=O)N2C1 [Example 9, ((S)-1-(((3R,6S,9S,15S,19R,20aS)-6-((1H-indol-3-yl)methyl)-19-acetamido-9-(3-guanidinopropyl)-3-(((1s,4S)-4-hydroxycyclohexyl)methyl)-1,4,7,10,16-pentaoxoicosahydropyrrolo[1,2-a][1,4,7,10,13]pentaazacyclooctadecin-15-yl)amino)-1-oxo-3-phenylpropan-2-yl)glycine]
C5a receptor [3]
  Kb: 32.6 nM
C5a receptor [4]
  Kb: 1 nM

## N=C(N)NCCC[C@@H]1NC(=O)[C@H](Cc2c[nH]c3ccccc23)NC(=O)[C@@H](C[C@H]2CC[C@@H](O)CC2)NC(=O)[C@@H]2C[C@@H](OCC(=O)O)CN2C(=O)[C@@H](NC(=O)[C@H](Cc2ccccc2)NCC(=O)O)CCCNC1=O [Example 2, 2-(((3R,6S,9S,15S,19R,20aS)-6-((1H-indol-3-yl)methyl)-15-((S)-2-((carboxymethyl)amino)-3-phenylpropanamido)-9-(3-guanidinopropyl)-3-(((1s,4S)-4-hydroxycyclohexyl)methyl)-1,4,7,10,16-pentaoxoicosahydropyrrolo[1,2-a][1,4,7,10,13]pentaazacyclooctadecin-19-yl)oxy)acetic Acid]
C5a receptor [3]
  Kb: 28.8 nM
C5a receptor [4]
  Kb: 3 nM
